In PubChem BioAssay (NCI):
“And” between values parts separate entries of the source, which are not always exact repeats. Equal values may be shown once.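 The compound was tested at five concentrations on cells cultured in 96-well plates, with a 48-hour exposure period. GI50: concentration for 50% inhibition of growth. TGI marks complete inhibition of growth.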

Tests used:
Assay in all cases: inhibition of tumour cell growth, NCI panel, 48 h
[1] = system: CAKI-1 renal
[2] = system: HCT-15 colon
[3] = system: HOP-62 NSCLC
[4] = system: HS 578T breast
[5] = system: M14 melanoma
[6] = system: MDA-MB-231 breast
[7] = system: OVCAR-8 ovarian
[8] = system: SK-OV-3 ovarian
[9] = system: SN12C renal
[10] = system: UO-31 renal

Row | Structure (SMILES) | GI50 [1] | TGI [1] | GI50 [2] | TGI [2] | GI50 [3] | TGI [3] | GI50 [4] | TGI [4] | GI50 [5] | TGI [5] | GI50 [6] | TGI [6] | GI50 [7] | TGI [7] | GI50 [8] | TGI [8] | GI50 [9] | TGI [9] | GI50 [10] | TGI [10]
1 | O=C1NC(=S)S/C1=C(/C=C(\CC(=O)c1ccccc1)c1ccc(Cl)cc1)c1ccccc1 | 33.7 µM | > 100 µM | 15.8 µM | 39.4 µM | 38.5 µM | > 100 µM | 42.3 µM | 85.4 µM | 24.7 µM | 63.4 µM | 25 µM | 72.6 µM | 26.5 µM | > 100 µM | > 100 µM | > 100 µM | 25.3 µM | 56.3 µM | 48.6 µM | > 100 µM
2 | COc1ccc2cc(-c3c(-c4ccncc4)nc(-c4ccc(S(C)(=O)=O)cc4C)n3C)ccc2c1 | 8.73 µM | > 25 µM | 7.97 µM | > 25 µM | 8.81 µM | > 23.9 µM | 5.24 µM | > 25 µM | 10.1 µM | > 25 µM | 9.75 µM | > 25 µM | 9.01 µM | > 25 µM | 6.5 µM | 16.7 µM | 8.22 µM | > 25 µM | 4.4 µM | 20.2 µM
3 | Cc1nc2sccn2c1-c1csc(Nc2cccc(Cl)c2C)n1 | 3.73 µM | 33.3 µM | 3.62 µM | 31.9 µM | 10.3 µM | > 100 µM | 4.56 µM | 51.2 µM | 5.04 µM | 28.5 µM | 3.62 µM | 20.2 µM | 5.84 µM | 47.1 µM | 21.2 µM | > 100 µM | 6.06 µM | > 100 µM | 3.05 µM | 23.7 µM
4 | O=C1c2cc(Cl)ccc2-c2c1c1ccc([N+](=O)[O-])cc1c(=O)n2CCCBr | 1.72 µM | 19.3 µM | 31.2 µM | > 100 µM | 2.46 µM | 23 µM | > 100 µM | > 100 µM | 3.91 µM | 64.2 µM | > 100 µM | > 100 µM | 8.35 µM | > 100 µM | 7.79 µM | > 100 µM | 2.5 µM | 8.89 µM | 2.64 µM | 31 µM
5 | COc1ccccc1/C=C/C(=O)c1ccccc1 | 6.3 µM | 18.6 µM | 3.47 µM | 14.7 µM | 18.8 µM | 37 µM | 12.1 µM | > 25.5 µM | 12.2 µM | 27 µM | 14.4 µM | 35.2 µM | 11.2 µM | 28 µM | 33.3 µM | > 100 µM | 7.55 µM | 22.9 µM | 4.69 µM | 17.9 µM
6 | Cc1cc2c(cc1Cl)SC1=NN(C)C(N(C)C)N1S2(=O)=O (configuration not stated) | > 100 µM | > 100 µM | > 100 µM | > 100 µM | > 100 µM | > 100 µM | > 100 µM | > 100 µM | > 100 µM | > 100 µM | > 100 µM | > 100 µM | > 100 µM | > 100 µM | > 100 µM | > 100 µM | > 100 µM | > 100 µM | 98.1 µM | > 100 µM
7 | COc1ccc(Cn2cc3c(c2)-c2oncc2CC3)cc1 | 6.24 µM | > 100 µM | 4.33 µM | > 70.6 µM | 9.64 µM | > 100 µM | 3 µM | 13.8 µM | 3.12 µM | 61.7 µM | 9.47 µM | > 100 µM | 9.34 µM | > 100 µM | 4.92 µM | > 82.1 µM | 10.1 µM | > 100 µM | 5.16 µM | > 90.7 µM
8 | C/C=C1\NC(=O)[C@H]2CSSCCC=C[C@H](CC(=O)N[C@H](C(C)C)C(=O)N2)OC(=O)[C@H](C(C)C)NC1=O | < 0.0339 µM | 0.0772 µM and 0.0244 µM and < 0.0104 µM | 0.203 µM and 0.0551 µM | 3.75 µM and 1.59 µM | < 0.01 µM |  | < 0.01 µM | 0.0439 µM | < 0.01 µM | 0.263 µM and 0.0826 µM and 0.206 µM | < 0.01 µM |  | < 0.01 µM | 0.0668 µM and 0.072 µM and 0.154 µM | < 0.01 µM and 0.000175 µM | < 0.01 µM and 0.00789 µM | < 0.01 µM |  | 0.026 µM and 0.0145 µM | 
9 | COc1cc2ncnc(Nc3ccc(F)c(Cl)c3)c2cc1NC(=O)/C=C/CN1CCCCC1 |  | 2.81 µM and 3.43 µM | 1.07 µM and 1.12 µM | 4.6 µM and 3.81 µM | 2.11 µM and 3.02 µM | 5.65 µM and > 9.66 µM | 2.01 µM and 0.921 µM | 19.6 µM and 5.6 µM | 1.72 µM and 1.61 µM | 3.4 µM and 3.26 µM | 1.3 µM and 1.53 µM | 3.2 µM and 4 µM | 1.28 µM and 1.64 µM | 5.35 µM and > 6.21 µM | 0.0171 µM and 0.00478 µM | 2.3 µM and 2.23 µM | 0.429 µM and 0.389 µM | 3.35 µM and 2.3 µM |  | 2.23 µM and 1.99 µM
10 | NC(N)=NCCC1OC(=O)C2=C1c1c(O)ccc3nccc(c13)O2 (configuration not stated) | > 100 µM | > 100 µM | > 100 µM | > 100 µM | > 100 µM | > 100 µM | > 100 µM | > 100 µM | > 100 µM | > 100 µM | > 100 µM | > 100 µM | > 100 µM | > 100 µM | > 100 µM | > 100 µM | > 100 µM | > 100 µM | > 100 µM | > 100 µM
11 | CCOc1cc(/C=N\Nc2nnc(C)n2N)c(C)cc1N(CCCl)CCCl | 1.31 µM | 9.44 µM | 1.28 µM | > 44.5 µM | 0.631 µM | 22.5 µM | 1.52 µM | 13.1 µM | 0.776 µM | > 49.8 µM | 1.39 µM | 6.29 µM | 1.34 µM | > 36 µM | 2.28 µM | 8.24 µM | 1.07 µM | 27.3 µM | 1.3 µM | 11.8 µM
12 | COc1cc(-c2cn(-c3ccc(Cl)c(Cl)c3)c(=O)n2C(C)=O)cc(OC)c1OC | 11.5 µM | 33.5 µM | 18.1 µM | 45.9 µM | 7.48 µM | 21.1 µM | 6.16 µM | 29.3 µM | 16.7 µM | 45.7 µM | 10.4 µM | 26.2 µM | 8.49 µM | 31.9 µM | 15.4 µM | 33.3 µM | 12.3 µM | 31.1 µM | 12 µM | 27.4 µM
13 | CC[PH+](CC)CC.O=COC1OC([S-])C(OC=O)C(OC=O)C1OC=O.[Au+] (configuration not stated) | 1.71 µM | 3.08 µM | 1.14 µM | 2.56 µM | 1.58 µM | 3.2 µM | 0.775 µM | 4.76 µM | 1.15 µM | 2.81 µM | 1.46 µM | 2.82 µM | 2.13 µM | 5.55 µM | 1.85 µM | 3.36 µM | 1.44 µM | 2.75 µM | 1.69 µM | 3.05 µM
14 | CCn1c2ccc(O)cc2c2c(C)c3c[n+](C)ccc3c(C)c21 | 65.2 µM | > 100 µM | 29.4 µM | > 100 µM | 1.18 µM | 21 µM | 0.509 µM | 4.98 µM | 4.4 µM | 29.2 µM | 9.58 µM | > 100 µM | 1.47 µM | 41.4 µM | 7.41 µM | 83.8 µM | 0.152 µM | 3.03 µM | 14.9 µM | > 100 µM
15 | COc1ccc(N2C(=O)[C@H]3CC(C)c4c([nH]c5ccccc45)[C@H]3C2=O)cc1 (some centres not stated) |  | 27.3 µM |  | > 100 µM |  | 16.3 µM |  | 33.4 µM |  | 39.9 µM |  | > 54.8 µM |  | 55.9 µM |  | 23.6 µM |  | 83.9 µM |  | 83.8 µM
16 | Cc1sc2nc3c4ccccc4c(NCCCN(C)C)nn3c(=O)c2c1C | 8.87 µM | 23.5 µM | 6.73 µM | 20.8 µM | 12.3 µM | 25.3 µM | 3.15 µM | 17.5 µM | 1.77 µM | 3.22 µM | 2.15 µM | 7.53 µM | 11 µM | 27.9 µM | 13.4 µM | 26.3 µM | 5.14 µM | 21.7 µM | 3.13 µM | 16.7 µM
17 | COc1cc(C(=O)Nc2cc3c(cc2Oc2cc(C)cc(C)c2)C(=O)N(C)[C@@H](CC(=O)N(C)O)C(=O)N3)c(Br)c(OC)c1OC | 0.496 µM | 2.58 µM | 0.144 µM | 2.04 µM | < 0.00333 µM | 0.00372 µM | < 0.00333 µM | 0.00422 µM | < 0.00333 µM | 0.0101 µM | < 0.00333 µM | < 0.00333 µM | < 0.00333 µM | 0.0181 µM | < 0.00333 µM | 0.00955 µM | < 0.00333 µM | < 0.00333 µM | 0.0255 µM | 0.413 µM
18 | NC(=O)c1cc2c3ccccc3ccn2c1-c1ccccc1 | 0.143 µM | 3.54 µM | 0.0543 µM | 11.9 µM | 0.446 µM | 18.8 µM | 0.0632 µM | 62.6 µM | 0.0706 µM | 17.7 µM | 0.662 µM | 17.5 µM | 0.0937 µM | 16.4 µM | 0.0503 µM | 12.7 µM | 0.0889 µM | 15.2 µM | 0.708 µM | 26.3 µM
19 | COc1ccc(Cn2c3c(cc(OS(=O)(=O)C(F)(F)F)c2=O)Cc2ccccc2-3)cc1 | 53 µM | 50 µM and > 100 µM |  | 50 µM and > 100 µM |  | 50 µM | > 100 µM | > 100 µM | 11.4 µM | 15.4 µM and 30.8 µM | 5.26 µM | > 100 µM | 9.07 µM | 50 µM and > 100 µM | > 100 µM | 50 µM and > 100 µM | 5.91 µM | 50 µM and 47 µM | 9.37 µM | 50 µM and > 100 µM
